Structures can show the parent of a compound that is named as a salt.
Row | melting point [°C] | Structure (SMILES)
1 | 220 | CNCCN(C1CCN(C)CC1)S(=O)(=O)c1ccc(Nc2nccc(Nc3ccc(F)cc3)n2)cc1 (as salt: hydrochloride) [Example 46, 4-[4-(4-Fluorophenylamino)pyrimidin-2-yl-amino]-N-(2-methylaminoethyl)-N-(1-methylpiperidin-4-yl)benzenesulfonamide hydrochloride]
2 | 183 to 186 | CN1CCC(N(C)S(=O)(=O)c2ccc(Nc3nccc(Nc4ccc(F)c(Cl)c4)n3)cc2)CC1 [Example 12, 4-[4-(3-Chloro-4-fluorophenylamino)pyrimidin-2-ylamino]-N-methyl-N-(1-methylpiperidin-4-yl)benzenesulfonamide]
3 | 130 | Cc1cc(CN2CCC(N(C)S(=O)(=O)c3ccc(Nc4nccc(Nc5ccc(F)c(C)c5)n4)cc3)CC2)[nH]n1 [Example 136, 4-({4-[(4-Fluoro-3-methylphenyl)amino]-pyrimidin-2-yl}amino)-N-methyl-N-{1-[(5-methyl-2H-pyrazol-3-yl)methyl]piperidin-4-yl}benzenesulfonamide]
4 | 225 | Cc1cc(Nc2ccnc(Nc3ccc(S(=O)(=O)N(CCN)C4CCN(CC(F)(F)F)CC4)cc3)n2)ccc1F (as salt: hydrochloride)
5 | 195 | CCN1CC(N(CCN2CCCC2)S(=O)(=O)c2ccc(Nc3nccc(Nc4ccc(F)c(C)c4)n3)cc2)C1 [Example 104, N-(1-Ethylazetidin-3-yl)-4-({4-[(4-fluoro-3-methylphenyl)amino]pyrimidin-2-yl}amino)-N-(2-pyrrolidin-1-ylethyl)benzenesulfonamide]
6 | 125 to 135 | CN1CCC(N(CCO)S(=O)(=O)c2ccc(Nc3nccc(Nc4ccc(F)cc4)n3)cc2)CC1 [Example 19, 4-[4-(4-Fluorophenylamino)pyrimidin-2-ylamino]-N-(2-hydroxyethyl)-N-(1-methylpiperidin-4-yl)-benzenesulfonamide]
7 | 85 | CN1CCC(N(CC[C@H]2CCCN2)S(=O)(=O)c2ccc(Nc3nccc(Nc4ccc(F)cc4)n3)cc2)CC1 [Example 153, 4-({4-[(4-Fluorophenyl)amino]pyrimidin-2-yl}amino)-N-(1-methylpiperidin-4-yl)-N-{2-[(2R)-pyrrol-idin-2-yl]ethyl}benzenesulfonamide]
8 | 88 to 90 | CCOP(=O)(CCN1CCC(N(CCN)S(=O)(=O)c2ccc(Nc3nccc(Nc4ccc(F)c(F)c4)n3)cc2)CC1)OCC
9 | 184 | Cc1cc(Nc2ccnc(Nc3ccc(S(=O)(=O)N(Cc4ccco4)C4CCC(=O)CC4)cc3)n2)ccc1F [Example 168]
10 | 215 | O=S(=O)(c1ccc(Nc2nccc(Nc3ccc(F)cc3)n2)cc1)N(CCN1CCCC1)C1CNC1 (as salt: hydrochloride) [Example 96, N-Azetidin-3-yl-4-({4-[(4-fluorophenyl)-amino]pyrimidin-2-yl}amino)-N-(2-pyrrolidin-1-ylethyl)-benzenesulfonamide hydrochloride]
11 | 135.2 | O=S(=O)(c1ccc(Nc2nccc(Nc3ccc(F)cc3)n2)cc1)N(CCN1CCCC1)[C@H]1CC[C@H](O)CC1 [Example 119, 4-({4-[(4-Fluorophenyl)amino]pyrimidin-2-yl}amino)-N-(trans-4-hydroxycyclohexyl)-N-(2-pyrrolidin-1-ylethyl)benzenesulfonamide]

Further lines, the molecule ahead of its results:

Row | Structure (SMILES) | melting point [°C]
12 | CN(C)CCN(C1CCN(C)CC1)S(=O)(=O)c1ccc(Nc2nccc(Nc3ccc(F)cc3)n2)cc1 [Example 18, N-(2-Dimethylaminoethyl)-4-[4-(4-fluoro-phenylamino)pyrimidin-2-ylamino]-N-(1-methylpiperidin-4-yl)benzenesulfonamide] | 135 to 137
13 | CCOP(=O)(CCN1CCC(N(CCN)S(=O)(=O)c2ccc(Nc3nccc(Nc4ccc(F)cc4)n3)cc2)CC1)OCC | 90
14 | CCNC1CCC(N(C)S(=O)(=O)c2ccc(Nc3nccc(Nc4ccc(F)cc4)n3)cc2)CC1 (stereo not drawn) [Example 142, 4-({4-[(4-Fluorophenyl)amino]pyrimidin-2-yl}amino)-N-methyl-N-[4-cis(ethylamino)cyclohexyl]-benzenesulfonamide] | 188
15 | CN(C1CCN(Cc2csnn2)CC1)S(=O)(=O)c1ccc(Nc2nccc(Nc3ccc(F)c(F)c3)n2)cc1 [Example 165, 4-({4-[(3,4-Difluorophenyl)amino]pyrimidin-2-yl}amino)-N-methyl-N-(1-{[1-(1,2,3)thiadiazol-4-yl]methyl}piperidin-4-yl)benzenesulfonamide] | 172 to 173
16 | CS(=O)(=O)CCN1CCC(NS(=O)(=O)c2ccc(Nc3nccc(Nc4ccc(F)cc4)n3)cc2)CC1 [Example 126, 4-({4-[(4-Fluorophenyl)amino]pyrimidin-2-yl}amino)-N-{1-[2-(methylsulfonyl)ethyl]piperidin-4-yl}benzenesulfonamide] | 183
17 | CN1CCC(N(CC2CCCO2)S(=O)(=O)c2ccc(Nc3nccc(Nc4ccc(F)cc4)n3)cc2)CC1 (racemic) [Example 154] | 189
18 | O=S(=O)(c1ccc(Nc2nccc(Nc3ccc(F)cc3)n2)cc1)N(CCNCC(F)(F)F)C1CCN(Cc2ccccc2)CC1 [Example 103, N-(1-Benzylpiperidin-4-yl)-4-({4-[(4-fluorophenyl)amino]pyrimidin-2-yl}amino)-N-{2-[(2,2,2-trifluoroethyl)amino]ethyl}benzenesulfonamide] | 137 to 138
19 | CCOP(=O)(CCN1CCC(NS(=O)(=O)c2ccc(Nc3nccc(Nc4ccc(F)c(F)c4)n3)cc2)CC1)OCC | 133
20 | CCOP(=O)(CN1CCC(NS(=O)(=O)c2ccc(Nc3nccc(Nc4ccc(F)c(F)c4)n3)cc2)CC1)OCC | 137.8
21 | NCCN(C1CCNCC1)S(=O)(=O)c1ccc(Nc2nccc(Nc3ccc(F)cc3)n2)cc1 (as salt: hydrochloride) [Example 44, N-(2-Aminoethyl)-4-[4-(4-fluorophenyl-amino)pyrimidin-2-ylamino]-N-piperidin-4-ylbenzene-sulfonamide hydrochloride] | 270
22 | CN(C1CCN(Cc2ccccn2)CC1)S(=O)(=O)c1ccc(Nc2nccc(Nc3ccc(F)cc3)n2)cc1 [Example 9, 4-[4-(4-Fluorophenylamino)pyrimidin-2-ylamino]-N-methyl-N-(1-pyridin-2-ylmethylpiperidin-4-yl)benzenesulfonamide] | 202 to 204
23 | CCNC1CCC(N(C)S(=O)(=O)c2ccc(Nc3nccc(Nc4ccc(F)cc4)n3)cc2)CC1 (stereo not drawn) [Example 143, 4-({4-[(4-Fluorophenyl)amino]pyrimidin-2-yl}amino)-N-methyl-N-[4-trans(ethylamino)cyclohexyl]-benzenesulfonamide] | 178
24 | COCCN(C1CCS(=O)(=O)C1)S(=O)(=O)c1ccc(Nc2nccc(Nc3ccc(F)cc3)n2)cc1 (centres unmarked) [Example 127, 4-[[4-[(4-Fluorophenyl)amino]-2-pyrimidin-yl]amino]-N-(2-methoxyethyl)-N-(tetrahydro-1,1-dioxido-3-thienyl)benzenesulfonamide] | 150
25 | CN1C2CCC1CC(N(C)S(=O)(=O)c1ccc(Nc3nccc(Nc4ccc(F)cc4)n3)cc1)C2 (centres unmarked) | 184.5
26 | CN1CCC(N(C)S(=O)(=O)c2ccc(Nc3nccc(Nc4ccc(F)cc4)n3)cc2)CC1 [Example 1, 4-[4-(4-Fluorophenylamino)pyrimidin-2-ylamino]-N-methyl-N-(1-methylpiperidin-4-yl)benzenesulfonamide] | 205 to 210
